Test results from patent US20240238426A1, “PROTEIN ACYLATION MODULATION BY HETEROBIFUNCTIONAL MOLECULES” (THE SCRIPPS RESEARCH INSTITUTE, priority 2021, published 2024).

Test system: H3.3-FKBP12^F36V HeLa cells
Experiment: Quantitative acetylproteomics of H3.3-FKBP12^F36V HeLa cells
Type: cell-based, Human
Description: Sample preparation: Frozen cell pellets were thawed on ice and lysed in a buffer containing 50 mM Tris-HCl (pH 7.5), 150 mM NaCl, 1 mM EDTA, 1% NP-40, 0.1% sodium deoxycholate, 5 mM sodium butyrate, 10 mM nicotinamide and 1X Pierce™ protease inhibitor cocktail. Cells were sonicated to ensure complete lysis, mixed with 5 M NaCl at a ratio of 1:10 with sample volume and incubated on ice for 15 min to release chromatin-bound proteins. Cell lysates were then sonicated again to shear genomic DNA. Cellular debris was cleared by centrifugation at 16,000 g for 20 min at 4° C., protein concentration was determined using a Pierce™ BCA assay and ˜10 mg of protein was aliquoted for acetyl-proteomic analysis. Proteins were denatured with 8 M urea in 50 mM HEPES, reduced with 5 mM dithiothreitol for 30 min at 56° C., then alkylated with 5 mM iodoacetamide for 20 min in the dark at RT. Following alkylation, proteins were precipitated using chloroform-methanol as previously described, and protein pellets were dried at 56° C. for 15 min. Proteins pellets were resuspended in 1 M urea in 50 mM HEPES and digested in a two-step process with LysC and trypsin as previously described. Digested peptides were desalted using Phenomenex Strata-X polymeric reverse phase extraction cartridges using the following protocol. Cartridges were conditioned with 1 mL 100% acetonitrile, 1 mL 80% acetonitrile/0.5% AA, and 1 mL 0.1% TFA. Peptides were then loaded on to the cartridge at a reduced flow rate and desalted with 5 mL 0.1% TFA followed by 1 mL 0.5% AA. Desalted peptides were eluted using 1 mL 40% acetonitrile/0.5% AA followed by 1 mL 80% acetonitrile/0.5% AA and lyophilized. Digested peptides were quantified using the Pierce™ Quantitative Colorimetric Peptide Assay and […] was aliquoted from each for total protein analysis while the remaining peptide was lyophilized and retained for acetyl-peptide enrichment.
Acetyl-peptide Enrichment: Acetyl-peptides were enriched using the PTMScan® Acetyl-Lysine Motif [Ac-K] Kit according to manufacturer instructions. […]

**Q.** Which results are given for CC[C@H](C(=O)N1CCCC[C@H]1C(=O)O[C@H](CCc1ccc(OC)c(OC)c1)c1cccc(OCC(=O)NCCOCCOCCC(=O)NCCOc2ccc(CCc3nc4cc(-c5c(C)noc5C)ccc4n3CCN3CCOCC3)cc2)c1)c1cc(OC)c(OC)c(OC)c1 [AceTAG-1, (R)-3-(3,4-dimethoxyphenyl)-1-(3-((15-(4-(2-(5-(3,5-dimethylisoxazol-4-yl)-1-(2-morpholinoethyl)-1H-benzo[d]imidazol-2-yl)ethyl)phenoxy)-2,12-dioxo-6,9-dioxa-3,13-diazapentadecyl)oxy)phenyl)propyl (S)-1-((S)-2-(3,4,5-trimethoxyphenyl)butanoyl)piperidine-2-carboxylate]?
**A.** changes in acetylation of detected proteins relative to DMSO (600 nM AceTAG, FIG. 5D): no substantial changes in acetylation of any detected protein; endogenous histone lysine acetylation, including H3.3 (AceTAG treatment, FIG. 9C): no substantial changes
